Reference: patent publication US10935544B2, “Glycan arrays and method of use” (OBI Pharma, Inc., priority 2015, dated 2021)

Columns and labels:
Human IgM [1] = test: Glycan array analysis (primary test), glycan score of Human IgM; assay type: binding
Excerpt: (§1) This testing platform utilized Agnitio BioIC system which performed an automatically ELISA reaction within a microfluidic cartridge. Each cartridge contained an array of microfluidic pumps and valves, a channel network, reagent storage reservoirs, a glycan array reaction zone, and a waste storage reservoir. To perform the test, all reagent and test sample were pumped sequentially, from their respected reservoirs in to a reaction zone containing the glycan microarray in order to carry out a multiplexed ELISA reaction with chemical luminescence. The result data was captured simultaneously and data analysis was performed by the LabIT software provided by Agnitio Science and Technology Inc. The specification of equipment list of Agnitio BioIC system is listed in Table 2.
The Microfluidic cartridge was manufactured at Agnitio Science and Technology Inc. The microfluidic cartridge was composed by three layers shown in FIG. 9. The upper layer contained serum and reagents reservoirs, microfluidic pumps, and ELISA channel network. The rubber middle layer contained a coated nitrocellulose membrane. The glycan antigens (Globo H-ceramide and Globo H-lipid 1) were immobilized onto the nitrocellulose membrane via hydrophobic interactions. The bottom layer contained a tank as for the waste reservoir. There were one hundred and twenty spots for original array layout design. In order to ensure the spot-to-spot coefficient of variation (CV) was lower than 15%, we only used central sixty-four spots for following clinical sample test.
Reagent preparation: Sixty-six microliter Normal Human Serum (NETS) or pancreatic cancer patient's serum was added in 594 μL Sample Diluent Buffer (BioCheck Inc., Cat#MB 10175) to form ten-fold dilution. The Secondary Antibody Solution was performed by first adding 2 μL Horseradish peroxidase (HRP)-conjugated goat anti-human IgG (KPL Inc., Cat#474-1002)/IgM (KPL Inc., Cat#474-1003) in 98 μL Conjugate Buffer (SuperBlock (TBS) Blocking Buffer plus 0.2% Tween 20, Thermo Fisher Scientific Inc., Cat#37535) to form fifty-fold dilution. Next, 40 μL diluted solution was pumped into 2360 μL Conjugate Buffer to form the Secondary Antibody Solution (3000× diluted).
Assay procedure: Six hundred and twenty microliter Wash Buffer (Phosphate-buffered saline (Thermo Fisher Scientific Inc., Cat#70011) plus 0.2% (vol/vol) Tween 20 (J. T. Baker, Cat#JTB-X251-07)) was added in the “Wash” hole of array. […]
(§2) The glycan array was put on the Agnitio BioIC Pumping Machine for pressurizing 30 minutes. The bound serum was visualized monitored using Agnitio BioIC Analyzer. The absorbance intensity of array was converted into “Glycan Scores” based on the following calculation: In certain examples, glycan scores=(raw data−background)/Internal Control×10. […]

Human IgG = test: Glycan array analysis (primary test), glycan score of Human IgG; assay type: binding
Excerpt: as §1
The Microfluidic cartridge was manufactured at Agnitio Science and Technology Inc. The microfluidic cartridge was composed by three layers shown in FIG. 9. The upper layer contained serum and reagents reservoirs, microfluidic pumps, and ELISA channel network. […]
as §2

Human IgM [2] = test: Glycan array analysis (secondary test), relative anti-glycan Human IgM, pancreatic cancer; assay type: binding
Experimental: The reagents, equipment and assay procedures were totally the same as primary test. However, the intensity of array was converted into “Ab level (μg/mL)” based on following calculation which is relative to Anti-human Globo H IgG.
The internal curve of each chip was using linear regression to calculate slope and intercept. In certain examples, the Ab level (μg/mL)=[(raw data-intercept)/slope]×0.1. The internal curve was performed using 0.0625, 0.125, 0.25, 0.5, 0.75, and 1 μg/mL of human IgM.
Relative Anti-glycan Human IgM: There were total 277 clinical samples (108 pancreatic cancer and 169 healthy serum) performed using Globo H-lipid 1 and SSEA-4-lipid 1 immobilized arrays. The median values of Globo H-lipid 1 IgM test were 0.32 (pancreatic cancer) and 0.25 (healthy) [FIG. 11A]. The median values of SSEA-4-lipid 1 IgM test were 0.12 (pancreatic cancer) and 0.08 (healthy) [FIG. 11B].

VK9 = test: ELISA binding of VK9 to plate-coated Globo H-ceramide and Globo H-lipids; details: glycan immobilized on microtiter plate from 0.001 to 10 μg/mL; FIG. 8A
Experimental: Enzyme-linked immunosorbent assay. Clear Flat-Bottom Immuno Nonsterile 96-Well Plates (Thermo Fisher Scientific Inc., Cat#442404)) were coated with the respective glycan-linked glycopeptides at 0.2 μg to 50 μL ethanol per well and were incubated at room temperature overnight. Then 100 μL Casein Blocking Buffer (Sigma-Aldrich Co. LLC, Cat#B6429) was added to each well and the microtiter plate was incubated at room temperature for 30 minutes. All subsequent steps were performed at room temperature.
The microtiter plate was treated with 50 μL of different dilutions of VK9 cells in Casein Blocking Buffer to each well and incubated at room temperature for 1 hr. The wells were then washed three times with Phosphate-buffered saline (Thermo Fisher Scientific Inc., Cat#70011) plus 0.05% (vol/vol) Tween 20 (J. T. Baker, Cat#JTB-X251-07) using a microplate washer (SkanWash 400, Molecular Devices LLC.). […]
The microtiter plate was treated with 100 μL of Alkaline Phosphatase (pNPP) Yellow Liquid Substrate System for ELISA (Sigma-Aldrich Co. LLC., Cat#P7998) at 37° C. for 20 minutes and the reaction was stopped by adding another 50 μL of Stop Solution (3N NaOH). The bound VK9 cells were visualized monitored at 405 nm using a microplate reader (SpectraMax M2, Molecular Devices LLC.). […]

IgM = test: Sugar array IgM binding with pancreatic cancer and healthy clinical samples; design: species or system human
Experimental: The Globo H lipid 1, Globo H lipid 2, and Globo H-ceramide were immobilized on microtiter plate from 0.001 to 10 μg/mL, separately. […] In addition, the comparison of IgM binding patterns of Globo H-ceramide, Globo H-lipid 1, and Globo H-lipid 2 using sugar array was listed in FIG. 8B. […] In some embodiments the complex binding agent may comprise any of the complex binding agents or detectable labels of this disclosure. In certain exemplary embodiments, the Globo H ceramide and Globo H lipids are the array elements and the IgM antibodies are from the sample. And then secondary labeled anti-human ab are used to detect the complexes

| Molecule | median glycan score, IgM test (Human IgM [1]; healthy serum) | median glycan score, IgM test (Human IgM [1]; pancreatic cancer serum) | median glycan score, IgG test (Human IgG; healthy serum) | median glycan score, IgG test (Human IgG; pancreatic cancer serum) | median Ab level, IgM test (Human IgM [2]; healthy serum) | median Ab level, IgM test (Human IgM [2]; pancreatic cancer serum) | optical density at 405 nm (OD405) (VK9) | Mean (IgM) Healthy (n = 100) (IgM; healthy samples) | Mean (IgM) Pancreatic cancer (n = 115) (IgM; pancreatic cancer samples) |
| --- | --- | --- | --- | --- | --- | --- | --- | --- | --- |
| CCCCCCCCCCCCCCCCOCC(OCCCCCCCCCCCCCCCC)C(=O)NCCCCCO[C@H]1OC(CO)[C@@H](O[C@@H]2OC(CO)[C@H](O[C@H]3OC(CO)[C@H](O)C(O[C@@H]4OC(CO)[C@H](O)C(O[C@@H]5OC(CO)[C@H](O)C(O)C5O[C@@H]5OC(C)[C@@H](O)C(O)C5O)C4NC(C)=O)C3O)C(O)C2O)C(O)C1O (stereo partly shown) [Globo H-lipid 1] | 2.56 | 6.64 | 0.12 | 0.54 | 0.25 µg/mL | 0.32 µg/mL | – | – | – |
| CCCCCCCCCCCCCCCCOC[C@@H](COC(=O)CCCC(=O)NCCCCCO[C@H]1OC(CO)[C@@H](O[C@@H]2OC(CO)[C@H](O[C@H]3OC(CO)[C@H](O)C(O[C@@H]4OC(CO)[C@H](O)C(O[C@@H]5OC(CO)[C@H](O)C(O)C5O[C@@H]5OC(C)[C@@H](O)C(O)C5O)C4NC(C)=O)C3O)C(O)C2O)C(O)C1O)OCCCCCCCCCCCCCCCC (stereo partly shown) [Globo H-lipid 2] | – | – | – | – | – | – | higher than Globo H-ceramide | – | – |
| CCCCCCCCCCCCCCCCOC[C@@H](OCCCCCCCCCCCCCCCC)C(=O)NCCCCCO[C@@H]1O[C@H](CO)[C@@H](O[C@@H]2O[C@H](CO)[C@H](O[C@H]3O[C@H](CO)[C@H](O)[C@H](O[C@@H]4O[C@H](CO)[C@H](O)[C@H](O[C@@H]5O[C@H](CO)[C@H](O)[C@H](O[C@]6(C(=O)O)C[C@H](O)[C@@H](NC(C)=O)[C@H]([C@H](O)[C@H](O)CO)O6)[C@H]5O)[C@H]4NC(C)=O)[C@H]3O)[C@H](O)[C@H]2O)[C@H](O)[C@H]1O [SSEA-4-lipid 1] | – | – | – | – | 0.08 µg/mL | 0.12 µg/mL | – | – | – |
| Globo H-ceramide [reference compound] | 1.57 | 2.53 | – | – | – | – | – | 1977.88 | 3130.03 |
